Test results reported in patent US9969699B2, “Cancer cell growth inhibitor, anticancer agent, and method for screening same, as well as novel compound” (Microbial Chemistry Research Foundation, priority 2014, dated 2018).
Read-outs that look alike come from different tables or passages of the source.

Tests used:
NIH3T3/EGFR vIII cells = experiment: 3D cell culture step (environment without adhesion scaffold), proliferation of NIH3T3/EGFR vIII cells; assay type: cell-based, mouse; conditions: Mus musculus, 72 h; NIH3T3/EGFR vIII cells, Ultra Low Attachment plate, 3 days, […]-GLO
NIH3T3 cells = experiment: 2D cell culture step (environment with adhesion scaffold), proliferation of NIH3T3 cells; assay type: cell-based; conditions: Mus musculus, read-out: IC50 2D cell culture step
Method: Note that, as a negative control, the NIH3T3 cells at 2×10^3 cells/100 were seeded to the same plate in a volume of 100 μL per well and cultured at 37° C. in the presence of 5% CO2 for 3 days without the addition of the test substance.
Note that, Dulbecco's Modified Eagle Medium supplemented with 5% FBS was used for the culture.
A cell proliferation inhibition rate in the 2D cell culture step was calculated according to (Expression 2) below. Cell proliferation inhibition rate(%)=(1−D/E)×100 (Expression 2)
In the (Expression 2), D denotes the number of viable NIH3T3 cells when the test substance was added, and E denotes the number of viable NIH3T3 cells when the test substance was not added.

[1] = 72 h, NIH3T3 cells, TC-treated plate, 3 days, […]-GLO

Row | Compound | IC50 (NIH3T3/EGFR vIII cells) | IC50 (NIH3T3 cells; [1]) | IC50 (NIH3T3 cells; NIH3T3, 72 h)
1 | CCNc1ccccc1-c1nc2ccccc2[nH]c1=O [Structural Formula (11), 3-[2-(ethylamino)phenyl]-2(1H)-quinoxalinone] | > 10 µM | > 10 µM | 
2 | CCOC(=O)Cn1c(=O)c(-c2cc(Br)ccc2N)nc2ccccc21 [Structural Formula (14), ethyl 2-[3-(2-amino-5-bromophenyl)-2-oxohydroquinoxalinyl]acetate] | 10 µM | > 10 µM | 
3 | Cc1ccc2nc(-c3cc(Br)ccc3N)c(=O)[nH]c2c1 [Structural Formula (2), 3-(2-amino-5-bromophenyl)-7-methylhydroquinoxalin-2-one] | 0.1 µM | > 10 µM | 
4 | O=c1[nH]c2ccccc2nc1-c1ccccc1NCc1ccc(F)cc1 [Structural Formula (12), 3-{2-[(4-fluorobenzyl)amino]phenyl}-2(1H)-quinoxalinone] | > 10 µM | > 10 µM | 
5 | C#Cc1cccc(Nc2ncnc3cc(OCCOC)c(OCCOC)cc23)c1 [Erlotinib, reference compound] |  |  | 50 µM
6 | CNc1ccc(Br)cc1-c1nc2ccccc2[nH]c1=O [Structural Formula (10), 3-[5-bromo-2-(methylamino)phenyl]-2(1H)-quinoxalinone] | > 10 µM | > 10 µM | 
7 | Cn1c(=O)c(-c2ccccc2N)nc2ccccc21 [Structural Formula (13), 3-(2-aminophenyl)-1-methyl-2(1H)-quinoxalinone] | > 10 µM | > 10 µM | 
8 | Nc1ccccc1-c1nc2ccccc2[nH]c1=O [Structural Formula (9), 3-(2-aminophenyl)-2(1H)-quinoxalinone] | > 10 µM | > 10 µM | 
